Entries after “also recorded” stand apart in the source; their conditions may differ.
How the values were obtained:
BD140C cells = test: Caspase 3/7 activity (Apo-ONE); type: cell-based
Description: (§1) The samples were incubated for 18 h at room temperature in the dark. The fluorescence was measured using a SpectraMax M5 microplate reader with a 0.5 s acquisition time.

H295R cells [1] = test: Caspase 3/7 activity (Apo-ONE); type: cell-based; conditions: H295R cells
Description: as §1

H295R cells [2] = test: Cortisol secretion (indirect ELISA); type: cell-based
Description: Cortisol secretion was measured by replacing the culture medium with fresh medium containing the indicated compounds. The medium was collected at the indicated times. The cortisol concentration in the medium was measured using indirect ELISA (Arbor Assays).
After 48 h, the medium was removed and replaced with 50 μl of fresh medium. After the indicated incubation time, aliquots of the supernatant ranging from 0.5 to 10 μl were diluted in 50 μl of medium were used to measure the amount of cortisol secreted. Cortisol detection and quantification were performed by indirect ELISA according to the manufacturer's protocol (Arbor Assays #K003).

MDR1 = molecular target: T1, MDR1 (Homo sapiens, UniProt P08183); test: Doxorubicin accumulation / clearance in H295R cells; type: cell-based; conditions: 25 μM doxorubicin, 2 h
T1 construct: measured the accumulation of doxorubicin in H295R cells; endogenous in cells; host or cells: H295R adrenocortical carcinoma cells
Description: The medium was removed and immediately replaced with 100 μl of fresh media and intracellular doxorubicin fluorescence was visualized by fluorescence microscopy using a 20× objective.

H295R cells [3] = test: Cholesterol crystallization and extracellular cholesterol associated with cells; type: cell-based
Description: To quantify cholesterol crystallization, experiments were conducted that measured the total extracellular cholesterol that was associated with the cells. After culturing cells with the indicated compounds, the culture medium was removed. Medium lacking cholesterol was added to the cells, and the extracellular cholesterol that was released into the wash medium was collected after 30 seconds. To establish if the cholesterol that was released from the cells was exported by ABCA1, the wash step was performed in parallel using media with and without 50 μM glibenclamide, which inhibits ABCA1 activity. The total amount of cell-associated cholesterol that was released into the wash medium was measured using a fluorometric enzyme-linked assay (Cayman Chemical). Cholesterol esters were hydrolyzed using cholesterol esterase. Cholesterol was oxidized by cholesterol oxidase, producing hydrogen peroxide. The hydrogen peroxide was reacted with 10-acetyl-3,7-dihydroxyphenoxazine (ADHP) in the presence of horseradish peroxidase to produce resorufin. Resorufin fluorescence was measured using 555 nm exitation and 590 nm emission wavelengths in a SpectraMax M5 microplate reader (Molecular Devices).
The medium was removed and replaced with 50 μl serum-free medium supplemented with 5 μg/mL apo-AI (without or with 50 μM glyburide to detect ABCA1 transporter-dependent efflux) for either 30 sec or 1 h at 37 C in 5% CO2 atmosphere. After the indicated time, the supernatant, was transferred to a new 96-well plate and a fluorometric-base cholesterol detection assay cocktail was added.

H295R cells [4] = test: Cell morphology by phase contrast microscopy; type: cell-based; conditions: 30 h, phase contrast, hydrochloride
Description: FIG. 4E: […] The cells were cultured with DMSO vehicle (upper images) or with 40 μM ATR-101 (lower images) alone (left images), or in combination with 1.5 mM MβCD (middle images), or in combination with 40 μM cholesterol (right images). Cell morphology was visualized by phase contrast microscopy using a 10× objective. The images are representative of 5 fields under each set of culture conditions. The scale bars denote 100 μm.

ACC cell xenografts = conditions: nude mice; cited from earlier work
adrenal cortex = conditions: in vivo; cited from earlier work
H295R cells [5] = test: Cellular ATP level (CellTiter-Glo);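 note: ATP quantified by luminescence after lysing the cells in CellTiter-Glo reagent, with compound exposure at 37 °C under 5% CO2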
Description: The ATP levels of cells were measured by lysis in CellTiter-Glo reagent (Promega), and measurement of the luminescence.
After 48 h, 20-80 μl of medium was removed from each well and replaced with 20 μl of each compound diluted to 6× of the final concentration in the culture medium to produce a final volume of 120 μl. The cells were incubated at 37 C in 5% CO2 atmosphere for a time ranging from 15 min to 24 h. The medium was removed and immediately replaced with 50 μl of CellTiter-Glo luminescence cell viability assay reagent (Promega). The cells were lysed by agitation at room temperature for 20 min in the dark. The luminescence was measured using a SpectraMax M5 microplate reader (Molecular Devices) with a 0.5 s acquisition time. The luminescence (RLU) values for control cells ranged from 5000 to 20000 RLU in all experiments, and were scaled by a factor of 0.001 to plot all graphs.

CC(C)c1cccc(C(C)C)c1NC(=O)NCC1(c2ccc(N(C)C)cc2)CCCC1.Cl [ATR-101, N-(2,6-bis(1-methylethyl)phenyl)-N′-((1-(4-(dimethylamino)phenyl)cyclopentyl)methyl)urea hydrochloride]
caspase 3/7 activity, compound alone (BD140C cells; 4 h): increased the caspase 3/7 activity
caspase 3/7 activity, compound alone (BD140C cells; 24 h): increased the caspase 3/7 activities
time after ATR-101 addition at which caspase activation was detected (H295R cells [1]; 100 μM ATR-101): 15 min
caspase 3/7 activity, compound alone (H295R cells [1]; serum-containing medium, 4 h): increased the caspase 3/7 activity
caspase 3/7 activity, compound alone (H295R cells [1]; serum-containing medium, 24 h): increased the caspase 3/7 activities
caspase 3/7 activity, compound alone (H295R cells [1]; serum-free medium, 4 h): caused ATP depletion and caspases activation with the same potency
basal and forskolin-stimulated cortisol secretion (H295R cells [2]; 100 μM ATR-101, with or without 100 μM forskolin): blocked both basal and forskolin-stimulated cortisol secretion
cortisol secretion, compound alone (H295R cells [2]; cortisol in medium, 4 h or time course, hydrochloride): inhibited cortisol secretion
doxorubicin accumulation (MDR1; 20 μM compound): increased doxorubicin accumulation
doxorubicin accumulation in the presence of MβCD (MDR1; 100 μM ATR-101, 4 mM MβCD): caused doxorubicin accumulation in the presence of MβCD
cholesterol crystallization at the plasma membrane, compound alone (H295R cells [3]; 40 μM ATR-101, 24 h, hydrochloride): associated with crystals that emanated from the cell membrane; also recorded: cholesterol crystallization at the plasma membrane
total extracellular cholesterol associated with cells (H295R cells [3]; 4 h, 100 μM ATR-101 or 40 μM cholesterol): increased the total extracellular cholesterol
cell morphology, compound alone (H295R cells [4]): small, rounded and weakly attached to the plate
establishment and growth of ACC cell xenografts (ACC cell xenografts): inhibits the establishment and impedes the growth
adrenalytic activity (adrenal cortex): has adrenalytic activity
concentration required for ATP depletion and caspase activation relative to the concentration that inhibited cholesterol esterification (H295R cells [5]; ACC-derived cells, 4 h): more than two orders of magnitude higher
time after ATR-101 addition at which ATP depletion was detected (H295R cells [5]; H295R cells, 100 μM ATR-101): 30 min
fold lower concentration that reduced the ATP level in combination than required separately (H295R cells [5]; H295R cells, ATR-101 and rhodamine-123 in combination, 4 h): 10 fold
ATP level, compound alone (H295R cells [5]; H295R cells, serum-containing medium, 4 h): reduced the ATP level
ATP level, compound alone (H295R cells [5]; H295R cells, serum-containing medium, 24 h): reduced the ATP levels
ATP level, compound alone (H295R cells [5]; H295R cells, serum-free medium, 4 h): caused ATP depletion

Reference: US10512667B2, “Compositions and methods for treating conditions related to adrenocortical activity and/or excessive steroid production” (The Regents of the University of Michigan, priority 2017, dated 2019)
